The target of one test is TAAR1. Description: Calculated Kd of the radioligand used in the TAAR1 binding assay. The note with it: species not stated. How it is done: Each experiment was performed in duplicate.
A further test deals with mouse TAAR1 (Mus musculus, UniProt Q923Y8). Nature of the test: Radioligand binding on membranes of HEK293 cells stably expressing mouse TAAR1.
For the next test, the target named is rat TAAR1 (Rattus norvegicus, UniProt Q923Y9). Nature of the test: Radioligand binding on membranes of HEK293 cells stably expressing rat TAAR1.
rat TAAR1, sequence (Q923Y9 whole entry): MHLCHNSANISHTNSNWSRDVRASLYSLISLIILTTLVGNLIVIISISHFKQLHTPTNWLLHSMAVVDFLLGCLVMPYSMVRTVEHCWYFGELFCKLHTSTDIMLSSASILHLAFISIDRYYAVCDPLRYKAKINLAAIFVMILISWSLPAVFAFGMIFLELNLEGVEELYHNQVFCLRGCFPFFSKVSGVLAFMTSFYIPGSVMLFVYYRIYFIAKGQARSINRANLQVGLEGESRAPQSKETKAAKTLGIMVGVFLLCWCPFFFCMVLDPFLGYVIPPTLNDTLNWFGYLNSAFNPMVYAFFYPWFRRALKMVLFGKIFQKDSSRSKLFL

mouse TAAR1, sequence (Q923Y8 whole entry): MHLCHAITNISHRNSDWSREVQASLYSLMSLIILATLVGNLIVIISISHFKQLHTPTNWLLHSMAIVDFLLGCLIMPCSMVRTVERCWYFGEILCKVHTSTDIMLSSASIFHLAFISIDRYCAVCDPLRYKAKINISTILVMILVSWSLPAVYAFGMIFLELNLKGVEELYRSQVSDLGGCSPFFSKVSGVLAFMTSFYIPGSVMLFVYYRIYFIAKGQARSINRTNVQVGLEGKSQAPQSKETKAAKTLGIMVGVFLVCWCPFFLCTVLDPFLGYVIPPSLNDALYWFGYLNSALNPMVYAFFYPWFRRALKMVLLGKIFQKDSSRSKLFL

In general, Kd refers to the equilibrium constant for the complex coming apart. Consider `c1ccc2c(c1)CCCC2C1=NCCN1` (racemic), for which, on TAAR1, the Kd was 60 nM.

As usually defined, the Ki is the equilibrium dissociation constant of an inhibitor or competing ligand from its target. Low values mean a stronger hold on the target, high ones a looser hold on the target. With `CN(C[C@@H]1COC(N)=N1)c1ccc2ccccc2c1` [Example 162, (R)-4-[(Methyl-naphthalen-2-yl-amino)-methyl]-4,5-dihydro-oxazol-2-ylamine], the Ki worked out at 7.7 nM on mouse TAAR1 and 15.5 nM on rat TAAR1.

In the case of `CCN(C[C@@H]1COC(N)=N1)c1ccc2ccccc2c1` [Example 163, (R)-4-[(Ethyl-naphthalen-2-yl-amino)-methyl]-4,5-dihydro-oxazol-2-ylamine], the values for the Ki on mouse TAAR1 and on rat TAAR1 were 2.9 nM and 5.2 nM, respectively.

Regarding `CCN(C[C@H]1COC(N)=N1)c1cc(Cl)cc(Cl)c1` [Example 165, (S)-4-{[(3,5-Dichloro-phenyl)-ethyl-amino]-methyl}-4,5-dihydro-oxazol-2-ylamine], the Ki on mouse TAAR1 was 1.4 nM; at rat TAAR1 it was 0.9 nM.

In the case of `CCN(C[C@@H]1COC(N)=N1)c1cc(F)cc(C(F)(F)F)c1` [Example 167, (R)-4-{[Ethyl-(3-fluoro-5-trifluoromethyl-phenyl)-amino]-methyl}-4,5-dihydro-oxazol-2-ylamine], the Ki at mouse TAAR1 is 5.1 nM; at rat TAAR1, 9.7 nM.

On to `CCN(C[C@H]1COC(N)=N1)c1ccc(C(F)(F)F)cc1C` [Example 175, (S)-4-{[Ethyl-(2-methyl-4-trifluoromethyl-phenyl)-amino]-methyl}-4,5-dihydro-oxazol-2-ylamine], for which the Ki on mouse TAAR1 turned out to be 9.2 nM; at rat TAAR1 it was 8.3 nM.
